{"source": "patent US8541476B2", "about": "“Compounds for treatment of malignant tumors” (The Trustees of the University of Pennsylvania, priority 2007, dated 2013)", "key": {"[1]": {"test_system": "Nontransformed human astrocytes (NHA)", "assay": "Modified MTS survival assay on normal human astrocytes after IR", "type": "cell-based", "conditions": "5 μM, 8 hours or 12 hours pretreatment, versus DMSO", "method": "Clonogenic survival assays were performed as described by Koumenis, et al., 2002, (Mol. Cell Biol. 22:7405-16), which reference is incorporated herein in its entirety. U251, HT-29, or A549 cells were plated at different densities in triplicate, treated with NS-123 or DMSO (alone) and irradiated 4, 8, or 12 hours later with a range of doses using ^137Cs γ-rays at a dose rate of ˜4 Gy/minute (min). One hour after irradiation, the medium was replaced with fresh medium without NS-123 or DMSO. The cells were fixed 7-14 days after IR and stained with crystal violet. Colonies greater than 50 cells were then counted and normalized against the non-irradiated controls for each treatment. […] NHA cells were plated in 24-well plates in quadruplicate at equal density, treated with equal volumes of NS-123 or DMSO (alone) and irradiated as described above. One hour after irradiation, the medium was replaced with fresh ABM. Five days later, the MTS assay was used to evaluate cell survival as above.\nThe objective of any combination of therapeutic agents is to achieve an improved therapeutic result, which is a function both of tumor response and of normal tissue damage. No improvement in the therapeutic result of IR is gained utilizing a drug that increases the sensitivity of both tumor and normal cells to the same extent. […]"}, "[2]": {"assay": "NS-123 toxicity evaluation in nu/nu mice", "type": "in vivo", "method": "Female nu/nu (nude) mice (6-8 weeks old; Charles River, Wilmington, Mass.) were maintained at the WFUSM animal facility under conditions approved by the Animal Care and Use Committee. NS-123 in DMSO was mixed with 30% propylene glycol (DMSO concentration<1%) and administered via an i.p. injection at a dose of 50 mg/kg to three mice on three consecutive days. The mice were monitored over 30 days for signs of drug-related toxicity, lethality, and weight loss. Mice were euthanized by CO2 asphyxiation and necropsy was performed by a veterinary pathologist. The heart, lung, liver, spleen, kidney, brain, salivary gland, gastrointestinal tract, ovary, uterus, adrenal gland, and thyroid gland were preserved in 10% neutral buffered formalin for at least 48 hours. The tissues were embedded in paraffin, processed routinely for histology, cut at 4-6 microns, stained with hematoxylin and eosin and examined by light microscopy.\nTo test this hypothesis, 50 mg/kg (i.p.) was administered to nude mice for 3 consecutive days. Clinical signs of drug toxicity and lethality were not observed over the following 30 days."}, "U251 tumors xenografts": {"test_system": "U251 tumors xenografts", "assay": "U251 xenograft mouse model, tumor growth delay", "type": "in vivo", "method": "U251 cells (5×10^6) were suspended in 0.1 mL of PBS and then injected into the flanks of nu/nu female nude mice. After tumors formed (45±10 mm^3), mice were randomly assigned into one of four groups: DMSO+Sham IR, DMSO+5 Gy IR, NS-123+Sham IR, and NS-123+5 Gy IR. NS-123 was administered as described above. Groups not receiving NS-123 were treated with the same volume of DMSO alone dissolved in 30% propylene glycol. Mouse flanks were irradiated 4 hours following the second injection with 5 Gy (Precision X-Ray, Inc, North Branford, Conn.) given as one fraction or Sham IR. Tumor volumes were measured every other day based on the formula: Volume=length^2×width where length was always the longest dimension.\nData are presented as average relative tumor volume (RTV), where: RTV[Dayx]=Volume[Dayx]/Volume[Day0]\nThe measurement of tumor regrowth was calculated by the time needed to grow to 10× the treatment volume. As per Seo et al, 2005, (Clin. Cancer Res. 11:7499-507), the in vivo radiosensitizer enhancement ratio was defined as the ratio: TNS-123+IR/TDMSO+IR where T is tumor regrowth delay (days)\nTo investigate in a more sophisticated model the radiosensitization observed by NS-123 in ZF, a growth delay assay of U251 tumors xenografts in nu/nu nude mice was performed. Mice were treated for 3 consecutive days with either NS-123 or DMSO (i.p.) and received either 5 Gy IR or Sham IR 4 hours after the second injection (see Table at the bottom FIG. 7A). […] Furthermore, they provide additional support for the use of the novel ZF xenograft model as a faster, more economical screening tool for potential in vivo radiosensitizing activity of lead compounds."}, "[3]": {"test_system": "HT-29 colorectal cancer cells", "assay": "Clonogenic survival assay, HT-29 cells", "type": "cell-based, human", "quoted_text": "Clonogenic survival assays were performed.\nIn both cases, cells were pretreated with the compounds or DMSO vehicle control for 4 hours prior to treatment with ionizing radiation at the indicated doses."}}, "note": "Entries after “also recorded” stand apart in the source; their conditions may differ."}
{"smiles": "CCC(=O)c1ccc(Br)c([N+](=O)[O-])c1", "note": "[NS-123, 4′-bromo-3′-nitropropiophenone]", "values": [{"measurement": "radiosensitization of normal human glial cells", "setting": "[1]", "value": "no significant increase in radiosensitization; also recorded: does not radiosensitize"}, {"measurement": "gross and histopathological examination", "setting": "[2]; female, nu/nu (nude), mouse, in vivo, ip, 50 mg/kg", "value": "did not reveal any evidence suggestive of NS-123 associated toxicity"}, {"measurement": "clinical signs of drug toxicity and lethality", "setting": "[2]; nude mice, 50 mg/kg i.p. 3 consecutive days, 30 days observation", "value": "not observed"}, {"measurement": "mean time to reach Relative Tumor Volume (RTV)=10", "setting": "U251 tumors xenografts; NS-123 50 mg/kg i.p. x3 days + 5 Gy IR", "value": 20, "unit": "days"}, {"measurement": "mean time to reach Relative Tumor Volume (RTV)=10", "setting": "U251 tumors xenografts; NS-123 50 mg/kg i.p. x3 days + Sham IR", "value": 12, "unit": "days"}, {"measurement": "in vivo radiosensitizer enhancement ratio", "setting": "U251 tumors xenografts; ratio of tumor regrowth delay NS-123+IR / DMSO+IR", "value": 2.0}, {"measurement": "DER at 0.5 survival", "setting": "[3]; HT-29, 5 μM for 12 hours prior to IR", "value": 3.0}, {"measurement": "DER at 0.1 survival", "setting": "[3]; HT-29, pretreatment with NS-123", "value": 3.0}]}
